{"source": "patent US10927389B2", "about": "“Method of producing chemical substance by continuous fermentation” (Toray Industries, Inc., priority 2014, dated 2021)", "key": {"[1]": {"test_system": "Pichia mexicana NBRC 10320 strain", "assay": "Acetone resistance test", "type": "cell-based", "details": "strain NBRC 10320; 4% (v/v) acetone in YPAD medium, 30° C., 40 hours; absorbance at 600 nm with acetone ÷ without ×100", "procedure": "(§1) To 5 ml of YPAD medium, 200 μL of acetone was added so that the final concentration became 4% (v/v). […] Absorbance at 600 nm of YPAD medium (with acetone)÷absorbance at 600 nm of YPAD medium×100 (7)\nAs a result, the Pichia mexicana NBRC 10320 strain was found not to be a vanillin-resistant yeast, but found to be an acetone-resistant yeast."}, "[2]": {"test_system": "Saccharomyces cerevisiae NITE BP-1089 strain", "assay": "Acetone resistance test", "type": "cell-based", "details": "strain BP-1089; 4% (v/v) acetone in YPAD medium, 30° C., 40 hours; absorbance at 600 nm with acetone ÷ without ×100", "procedure": "as §1"}, "[3]": {"test_system": "Pichia stipitis BCRC 21777 strain", "assay": "Acetone resistance test", "type": "cell-based", "details": "strain BCRC 21777; 4% (v/v) acetone in YPAD medium, 30° C., 40 hours; absorbance at 600 nm with acetone ÷ without ×100", "procedure": "as §1"}, "[4]": {"test_system": "Kluyveromyces marxianus NBRC 272 strain", "assay": "Acetone resistance test", "type": "cell-based", "details": "strain NBRC 272; 4% (v/v) acetone in YPAD medium, 30° C., 40 hours; absorbance at 600 nm with acetone ÷ without ×100", "procedure": "as §1"}, "[5]": {"test_system": "Saccharomyces cerevisiae NBRC 10505/ΔPDC1::LDH strain", "assay": "Acetone resistance test", "type": "cell-based", "details": "strain NBRC 10505 ΔPDC1::LDH; 4% (v/v) acetone in YPAD medium, 30° C., 40 hours; absorbance at 600 nm with acetone ÷ without ×100", "procedure": "as §1"}, "[6]": {"test_system": "Lindnera fabianii NBRC 1253 strain", "assay": "Acetone resistance test", "type": "cell-based", "details": "strain NBRC 1253; 4% (v/v) acetone in YPAD medium, 30° C., 40 hours; absorbance at 600 nm with acetone ÷ without ×100", "procedure": "as §1"}, "[7]": {"test_system": "Candida pignaliae NBRC 10307 strain", "assay": "Acetone resistance test", "type": "cell-based", "details": "strain NBRC 10307; 4% (v/v) acetone in YPAD medium, 30° C., 40 hours; absorbance at 600 nm with acetone ÷ without ×100", "procedure": "as §1"}, "[8]": {"test_system": "Candida methanosorbosa BCRC 21489 strain", "assay": "Acetone resistance test", "type": "cell-based", "details": "strain BCRC 21489; 4% (v/v) acetone in YPAD medium, 30° C., 40 hours; absorbance at 600 nm with acetone ÷ without ×100", "procedure": "as §1"}, "[9]": {"test_system": "Saccharomyces cerevisiae NITE BP-1087 strain", "assay": "Acetone resistance test", "type": "cell-based", "details": "strain BP-1087; 4% (v/v) acetone in YPAD medium, 30° C., 40 hours; absorbance at 600 nm with acetone ÷ without ×100", "procedure": "as §1"}, "[10]": {"test_system": "Saccharomyces cerevisiae NBRC 2260/ΔPDC1::LDH strain", "assay": "Acetone resistance test", "type": "cell-based", "details": "strain NBRC 2260 ΔPDC1::LDH; 4% (v/v) acetone in YPAD medium, 30° C., 40 hours; absorbance at 600 nm with acetone ÷ without ×100", "procedure": "as §1"}, "[11]": {"test_system": "Saccharomyces cerevisiae NBRC 10505 strain", "assay": "Acetone resistance test", "type": "cell-based", "details": "strain NBRC 10505; 4% (v/v) acetone in YPAD medium, 30° C., 40 hours; absorbance at 600 nm with acetone ÷ without ×100", "procedure": "as §1"}, "[12]": {"test_system": "Candida tropicalis NBRC 199 strain", "assay": "Acetone resistance test", "type": "cell-based", "details": "strain NBRC 199; 4% (v/v) acetone in YPAD medium, 30° C., 40 hours; absorbance at 600 nm with acetone ÷ without ×100", "procedure": "as §1"}, "[13]": {"test_system": "Arxula adeninivorans NBRC 10858 strain", "assay": "Acetone resistance test", "type": "cell-based", "details": "strain NBRC 10858; 4% (v/v) acetone in YPAD medium, 30° C., 40 hours; absorbance at 600 nm with acetone ÷ without ×100", "procedure": "as §1"}, "[14]": {"test_system": "Saccharomyces cerevisiae NBRC 2260 strain", "assay": "Acetone resistance test", "type": "cell-based", "details": "strain NBRC 2260; 4% (v/v) acetone in YPAD medium, 30° C., 40 hours; absorbance at 600 nm with acetone ÷ without ×100", "procedure": "as §1"}, "[15]": {"test_system": "Saccharomyces cerevisiae NITE BP-1088 strain", "assay": "Acetone resistance test", "type": "cell-based", "details": "strain BP-1088; 4% (v/v) acetone in YPAD medium, 30° C., 40 hours; absorbance at 600 nm with acetone ÷ without ×100", "procedure": "as §1"}, "[16]": {"test_system": "Candida boidinii BCRC 22528 strain", "assay": "Acetone resistance test", "type": "cell-based", "details": "strain BCRC 22528; 4% (v/v) acetone in YPAD medium, 30° C., 40 hours; absorbance at 600 nm with acetone ÷ without ×100", "procedure": "as §1"}, "[17]": {"test_system": "Saccharomyces cerevisiae NITE BP-1087 strain", "assay": "Vanillin resistance test", "type": "cell-based", "details": "strain BP-1087; vanillin 1 g/L in YPAD medium, 30° C., 40 hours; absorbance at 600 nm with vanillin ÷ without ×100", "quoted_text": "(§2) The Saccharomyces cerevisiae NBRC 10505 strain was inoculated using a platinum loop to 20-ml test tubes each containing 5 ml of YPAD medium, and then cultured with shaking at 30° C. overnight (preculture). The YPAD medium had the following composition: 1% (w/v) yeast extract, 2% (w/v) bactopeptone, 2% (w/v) glucose, and 0.04% (w/v) adenine. A vanillin concentrate (200 g/L in DMSO) was prepared, and 25 μL of the vanillin concentrate was added to 5 ml of YPAD medium so that the final concentration became 1 g/L. To provide vanillin-free YPAD medium, 25 μl of DMSO alone was added to YPAD medium. The preculture liquid was inoculated to the YPAD medium (with vanillin) and the vanillin-free YPAD medium such that OD became 0.2, and culture was performed at 30° C. for 40 hours. After the culture, OD 600 nm of the culture liquid of each strain was measured, and a value was calculated according to Equation (6). Absorbance at 600 nm of YPAD medium (with vanillin)÷absorbance at 600 nm of YPAD medium×100 (6)."}, "[18]": {"test_system": "Saccharomyces cerevisiae NBRC 2260/ΔPDC1::LDH strain", "details": "strain NBRC 2260 ΔPDC1::LDH; vanillin 1 g/L in YPAD medium, 30° C., 40 hours; absorbance at 600 nm with vanillin ÷ without ×100", "quoted_text": "as §2"}, "[19]": {"test_system": "Pichia mexicana NBRC 10320 strain", "assay": "Vanillin resistance test", "type": "cell-based", "details": "strain NBRC 10320; vanillin 1 g/L in YPAD medium, 30° C., 40 hours; absorbance at 600 nm with vanillin ÷ without ×100", "quoted_text": "The Pichia mexicana NBRC 10320 strain was tested by the same method as in Reference Example 5, and values were calculated according to Equation (6) and Equation (7) (Table 1)."}, "[20]": {"test_system": "Lindnera fabianii NBRC 1253 strain", "assay": "Vanillin resistance test", "type": "cell-based", "details": "strain NBRC 1253; vanillin 1 g/L in YPAD medium, 30° C., 40 hours; absorbance at 600 nm with vanillin ÷ without ×100", "quoted_text": "The Lindnera fabianii NBRC 1253 strain was tested by the same method as in Reference Example 5, and a value was calculated according to Equation (6) and Equation (7) (Table 1)."}, "[21]": {"test_system": "Candida tropicalis NBRC 199 strain", "assay": "Vanillin resistance test", "type": "cell-based", "details": "strain NBRC 199; vanillin 1 g/L in YPAD medium, 30° C., 40 hours; absorbance at 600 nm with vanillin ÷ without ×100"}, "[22]": {"test_system": "Saccharomyces cerevisiae NITE BP-1089 strain", "assay": "Vanillin resistance test", "type": "cell-based", "details": "strain BP-1089; vanillin 1 g/L in YPAD medium, 30° C., 40 hours; absorbance at 600 nm with vanillin ÷ without ×100", "quoted_text": "as §2"}, "[23]": {"test_system": "Saccharomyces cerevisiae NBRC 2260 strain", "assay": "Vanillin resistance test", "type": "cell-based", "details": "strain NBRC 2260; vanillin 1 g/L in YPAD medium, 30° C., 40 hours; absorbance at 600 nm with vanillin ÷ without ×100", "quoted_text": "as §2"}, "[24]": {"test_system": "Candida boidinii BCRC 22528 strain", "assay": "Vanillin resistance test", "type": "cell-based", "details": "strain BCRC 22528; vanillin 1 g/L in YPAD medium, 30° C., 40 hours; absorbance at 600 nm with vanillin ÷ without ×100", "quoted_text": "The Candida boidinii BCRC 22528 strain was tested by the same method as in Reference Example 5, and values were calculated according to Equation (6) and Equation (7) (Table 1)."}, "[25]": {"test_system": "Saccharomyces cerevisiae NITE BP-1088 strain", "assay": "Vanillin resistance test", "type": "cell-based", "details": "strain BP-1088; vanillin 1 g/L in YPAD medium, 30° C., 40 hours; absorbance at 600 nm with vanillin ÷ without ×100", "quoted_text": "as §2"}, "[26]": {"test_system": "Saccharomyces cerevisiae NBRC 10505 strain", "assay": "Vanillin resistance test", "type": "cell-based", "details": "strain NBRC 10505; vanillin 1 g/L in YPAD medium, 30° C., 40 hours; absorbance at 600 nm with vanillin ÷ without ×100", "quoted_text": "as §2"}, "[27]": {"test_system": "Candida pignaliae NBRC 10307 strain", "assay": "Vanillin resistance test", "type": "cell-based", "details": "strain NBRC 10307; vanillin 1 g/L in YPAD medium, 30° C., 40 hours; absorbance at 600 nm with vanillin ÷ without ×100", "quoted_text": "(§3) The YPAD medium had the following composition: 1% (w/v) yeast extract, 2% (w/v) bactopeptone, 2% (w/v) glucose, and 0.04% (w/v) adenine. A vanillin concentrate (200 g/L in DMSO) was prepared, and 25 μL of the vanillin concentrate was added to 5 ml of YPAD medium so that the final concentration became 1 g/L. To provide vanillin-free YPAD medium, 25 μl of DMSO alone was added to YPAD medium. The preculture liquid was inoculated to the YPAD medium (with vanillin) and the vanillin-free YPAD medium such that OD became 0.2, and culture was performed at 30° C. for 40 hours. After the culture, OD 600 nm of the culture liquid of each strain was measured, and a value was calculated according to Equation (6). Absorbance at 600 nm of YPAD medium (with vanillin)÷absorbance at 600 nm of YPAD medium×100 (6)."}, "[28]": {"test_system": "Pichia stipitis BCRC 21777 strain", "assay": "Vanillin resistance test", "type": "cell-based", "details": "strain BCRC 21777; vanillin 1 g/L in YPAD medium, 30° C., 40 hours; absorbance at 600 nm with vanillin ÷ without ×100", "quoted_text": "as §3\nThe Pichia stipitis BCRC 21777 strain was tested by the same method as in Reference Example 5, and values were calculated according to Equation (6) and Equation (7) (Table 1)."}, "[29]": {"test_system": "Arxula adeninivorans NBRC 10858 strain", "assay": "Vanillin resistance test", "type": "cell-based", "details": "strain NBRC 10858; vanillin 1 g/L in YPAD medium, 30° C., 40 hours; absorbance at 600 nm with vanillin ÷ without ×100", "quoted_text": "as §2\nThe Arxula adeninivorans NBRC 10858 strain was tested by the same method as in Reference Example 5, and values were calculated according to Equation (6) and Equation (7) (Table 1)."}, "[30]": {"test_system": "Candida methanosorbosa BCRC 21489 strain", "assay": "Vanillin resistance test", "type": "cell-based", "details": "strain BCRC 21489; vanillin 1 g/L in YPAD medium, 30° C., 40 hours; absorbance at 600 nm with vanillin ÷ without ×100", "quoted_text": "The Candida methanosorbosa BCRC 21489 strain was tested by the same method as in Reference Example 5, and values were calculated according to Equation (6) and Equation (7) (Table 1)."}, "[31]": {"test_system": "Kluyveromyces marxianus NBRC 272 strain", "assay": "Vanillin resistance test", "type": "cell-based", "details": "strain NBRC 272; vanillin 1 g/L in YPAD medium, 30° C., 40 hours; absorbance at 600 nm with vanillin ÷ without ×100", "quoted_text": "as §3\nThe Kluyveromyces marxianus NBRC 272 strain was tested by the same method as in Reference Example 5, and values were calculated according to Equation (6) and Equation (7) (Table 1)."}, "[32]": {"test_system": "Saccharomyces cerevisiae NBRC 10505/ΔPDC1::LDH strain", "details": "strain NBRC 10505 ΔPDC1::LDH; vanillin 1 g/L in YPAD medium, 30° C., 40 hours; absorbance at 600 nm with vanillin ÷ without ×100", "quoted_text": "as §2"}}}
{"smiles": "CC(C)=O", "note": "[Acetone, acetone]", "values": [{"measurement": "Acetone resistance test result", "setting": "[1]", "value": 100}, {"measurement": "Acetone resistance test result", "setting": "[2]", "value": 7.2}, {"measurement": "Acetone resistance test result", "setting": "[3]", "value": 1.8}, {"measurement": "Acetone resistance test result", "setting": "[4]", "value": 87}, {"measurement": "Acetone resistance test result", "setting": "[5]", "value": 8}, {"measurement": "Acetone resistance test result", "setting": "[6]", "value": 111}, {"measurement": "Acetone resistance test result", "setting": "[7]", "value": 1.3}, {"measurement": "Acetone resistance test result", "setting": "[8]", "value": 74}, {"measurement": "Acetone resistance test result", "setting": "[9]", "value": 10}, {"measurement": "Acetone resistance test result", "setting": "[10]", "value": 84}, {"measurement": "Acetone resistance test result", "setting": "[11]", "value": 8.8}, {"measurement": "Acetone resistance test result", "setting": "[12]", "value": 100}, {"measurement": "Acetone resistance test result", "setting": "[13]", "value": 22}, {"measurement": "Acetone resistance test result", "setting": "[14]", "value": 86}, {"measurement": "Acetone resistance test result", "setting": "[15]", "value": 7.5}, {"measurement": "Acetone resistance test result", "setting": "[16]", "value": 49}]}
{"smiles": "COc1cc(C=O)ccc1O", "note": "[Vanillin, vanillin]", "values": [{"measurement": "Vanillin resistance test result", "setting": "[17]", "value": 9.2}, {"measurement": "Vanillin resistance test result", "setting": "[18]", "value": 82}, {"measurement": "Vanillin resistance test result", "setting": "[19]", "value": 11}, {"measurement": "Vanillin resistance test result", "setting": "[20]", "value": 95}, {"measurement": "Vanillin resistance test result", "setting": "[21]", "value": 82}, {"measurement": "Vanillin resistance test result", "setting": "[22]", "value": 7.8}, {"measurement": "Vanillin resistance test result", "setting": "[23]", "value": 83}, {"measurement": "Vanillin resistance test result", "setting": "[24]", "value": 66}, {"measurement": "Vanillin resistance test result", "setting": "[25]", "value": 8.5}, {"measurement": "Vanillin resistance test result", "setting": "[26]", "value": 6.8}, {"measurement": "Vanillin resistance test result", "setting": "[27]", "value": 1.9}, {"measurement": "Vanillin resistance test result", "setting": "[28]", "value": 22}, {"measurement": "Vanillin resistance test result", "setting": "[29]", "value": 84}, {"measurement": "Vanillin resistance test result", "setting": "[30]", "value": 54}, {"measurement": "Vanillin resistance test result", "setting": "[31]", "value": 100}, {"measurement": "Vanillin resistance test result", "setting": "[32]", "value": 6.2}]}
